Reference: patent US20240197670A1, “TREATMENT OF HERPES ZOSTER WITH TOPICAL TETRACAINE” (PAGARI LIFE SCIENCE CORP, priority 2022, published 2024)

Columns and labels:
Adult human skin = assay: Skin appearance / toxicity in skin organ culture; format: cell-based; details: for skin color change: skin treated for 48 or 72 hours, more intense in 72 hour group, only where applied
Source text: (§1) Adult human skin from a reduction mammoplasty was cleaned and cut to a thickness of 1 mm, maintaining normal skin architecture while removing underlying adipose and some of the subdermal and connective tissue. Skin was inoculated by scarification with VZV-ORF57-Luc (cell-associated virus, from a frozen stock). VZV-ORF57-Luc expresses firefly luciferase. Infected skin was placed on NetWells, which are designed to hold skin at the air-liquid interface. This orientation keeps the epidermis in contact with the air so it remains dry, while the dermis remains moist and in contact with the medium. Infected skin was scanned by IVIS Spectrum on DPI (Day Post Inoculation) 1 and 3, and prior to treatment being initiated. All treatments were started on DPI 3, but removed after different amounts of time, including after 8, 24, 48, or 72 hours. All compounds were formulated in either the test vehicle or cocoa butter (cidofovir, CDV) and applied directly to the epidermis. To remove treatment, the compound was gently wiped off the surface of the skin, and the entire skin explant was submerged and gently swirled in phosphate-buffered saline (PBS) for a few seconds to remove any residue. The topical treatment was removed prior to imaging by gently wiping it off the epidermis.
In this study, tetracaine was placed as a small drop in the center of the skin. A color change in the skin treated for 48 or 72 hours was observed, with more intense coloring in the 72 hour group. […] Each row in FIG. 5 depicts the same piece of skin over the course of the assay.

[1] = test system: VZV-ORF57-Luc (Varicella Zoster Virus) in adult human skin; assay: Antiviral evaluation against VZV in skin organ culture (SOC), bioluminescence VZV yield as fold change; format: cell-based
Procedure: The goal of this study was to evaluate the effect of tetracaine against VZV in a skin organ culture (SOC) model and to determine an appropriate duration of treatment in skin to prevent VZV spread. Tetracaine, either the formulation of Example 2 or the formulation of Example 7, was tested as a topical treatment (formulated in the vehicle of Example 7) against VZV infections. Control formulations (cidofovir, CDV) were formulated in cocoa butter.
as §1
FIGS. 4A-4D show VZV yield as fold change, which was calculated as the total flux (photons/sec) normalized to DPI 1 for each skin explant. Imaging started on DPI 1 and was performed every day or every other day starting on DPI 3, depending on the group. In FIGS. 4A-4D, the treatment period is highlighted by a gray box. […]

[2] = cited from earlier work

Structure (SMILES): CCCCNc1ccc(C(=O)OCCN(C)C)cc1 [Tetracaine]
- toxicity to the skin (Adult human skin; low bioluminescent signals in treated explants even after 3 days): not toxic to the skin
- skin color change (Adult human skin): color change
- effect against VZV-infected skin as a topical treatment (study conclusion) ([1]; skin organ culture): highly effective
- effect on VZV yield vs test vehicle ([1]; topical treatments of 24-72 hours started DPI 3, one-way ANOVA): highly effective
- solubility in alcohol, ether, benzene and chloroform ([2]; alcohol, ether, benzene, chloroform): soluble
- solubility in water ([2]; water): very slightly soluble

Structure (SMILES): Nc1ccn(C[C@@H](CO)OCP(=O)(O)O)c(=O)n1 [CDV, cidofovir]
- skin color change (Adult human skin): No color change
- virus spread compared to cocoa butter vehicle ([1]; formulated in cocoa butter, by end of treatment phase (FIG. 4D, 72 hours), Student's t-test p<0.01): significantly lower virus spread
